These results are taken from patent US20220235051A1, “DI-FLUORO AZEPANES AS HBV CAPSID ASSEMBLY MODULATORS” (priority 2019, published 2022).

Structures are written as SMILES.

By EC50 is commonly meant the concentration at which the effect is half-maximal.

The test system of the first test is HBV. Put plainly: HBV replication inhibition assay (BDNA assay) in HepG2.2.15 cells. The format is cell-based. The following applies: Hepatitis B virus, HepG2.2.15, 144 h, HepG2.2.15 cells, BDNA assay, encapsidated HBV DNA in supernatant at day 6; read-out: HepG2.2.15 EC50 HBV DNA. How it is done:
HBV replication inhibition by the disclosed compounds were determined in cells infected or transfected with HBV or cells with stably integrated HBV, such as HepG2.2.15 cells (Sells et al. 1987). In this example, HepG2.2.15 cells were maintained in cell culture medium containing 10% fetal bovine serum (FBS), Geneticin, L-glutamine, penicillin and streptomycin. HepG2.2.15 cells were seeded in 96-well plates at a density of 40,000 cells/well and were treated with serially diluted compounds at a final DMSO concentration of 0.5% either alone or in combination by adding drugs in a checker box format. Cells were incubated with compounds for three days, after which medium was removed and fresh medium containing compounds was added to cells and incubated for another three days. At day 6, supernatant was removed and treated with DNase at 37° C. for 60 minutes, followed by enzyme inactivation at 75° C. for 15 minutes. Encapsidated HBV DNA was released from the virions and covalently linked HBV polymerase by incubating in lysis buffer (Affymetrix QS0010) containing 2.5 μg proteinase K at 50° C. for 40 minutes. HBV DNA was denatured by addition of 0.2 M NaOH and detected using a branched DNA (BDNA) QuantiGene assay kit according to manufacturer recommendation (Affymetrix). HBV DNA levels were also quantified using qPCR, based on amplification of encapsidated HBV DNA extraction with QuickExtraction Solution (Epicentre Biotechnologies) and amplification of HBV DNA using HBV specific PCR probes that can hybridize to HBV DNA and a fluorescently labeled probe for quantitation. In addition, cell viability of HepG2.2.15 cells incubated with test compounds alone or in combination was determined by using CellTitre-Glo reagent according to the manufacturer protocol (Promega). The mean background signal from wells containing only culture medium was subtracted from all other samples, and percent inhibition at each compound concentration was calculated by normalizing to signals from HepG2.2.15 cells treated with 0.5% DMSO using equation E1.
% inhibition=(DMSOave−Xi)/DMSOave×100% E1
where DMSOave is the mean signal calculated from the wells that were treated with DMSO control (0% inhibition control) and Xi is the signal measured from the individual wells. EC50 values, effective concentrations that achieved 50% inhibitory effect, were determined by non-linear fitting using Graphpad Prism software (San Diego, Calif.) and equation E2.
Y=Ymin+(Ymax−Ymin)/(1+10(Log EC50−X)×HillSlope) E2
where Y represents percent inhibition values and X represents the logarithm of compound concentrations.
Selected disclosed compounds were assayed in the HBV replication assay (BDNA assay), as described above, and a representative group of these active compounds is shown in Table 3.
Turning to `N#Cc1cc(NC(=O)N2CCc3nn4c(c3C2)C(F)(F)CCC(O)(CF)C4)ccc1F` (stereo not drawn) [Example 37, N-(3-Cyano-4-fluorophenyl)-11,11-difluoro-8-(fluoromethyl)-8-hydroxy-3,4,8,9,10,11-hexahydro-1H-pyrido[4′,3′:3,4]pyrazolo[1,5-a]azepine-2(7H)-carboxamide], the EC50 was found to be 15 nM.
`O=C(Nc1ccnc(Br)c1F)N1CCc2nn3c(c2C1)C(F)(F)CC[C@H](O)C3` [Example 5, (S)-N-(2-Bromo-3-fluoropyridin-4-yl)-11,11-difluoro-8-hydroxy-3,4,8,9,10,11-hexahydro-1H-pyrido[4′,3′:3,4]pyrazolo[1,5-a]azepine-2(7H)-carboxamide]: the EC50 was determined as 57 nM.
On the same count and under the same terms, to `C[C@@H]1Cc2nn3c(c2CN1C(=O)Nc1ccnc(Br)c1F)C(F)=CC(O)CC3` (single isomer, unassigned) [Example 123, (3R,9R*)-N-(2-Bromo-3-fluoropyridin-4-yl)-11-fluoro-9-hydroxy-3-methyl-3,4,8,9-tetrahydro-1H-pyrido[4′,3′:3,4]pyrazolo[1,5-a]azepine-2(7H)-carboxamide] belongs 18 nM.
Same read-out and setting: to `C[C@@H]1Cc2nn3c(c2CN1C(=O)Nc1ccnc(Br)c1F)C(F)(F)CC[C@@H](O)C3` [Example 68, (3R,8R)-N-(2-Bromo-3-fluoropyridin-4-yl)-11,11-di fluoro-8-hydroxy-3-methyl-3,4,8,9,10,11-hexahydro-1H-pyrido[4′,3′:3,4]pyrazolo[1,5-a]azepine-2(7H)-carboxamide] belongs 21 nM.
On the same count and under the same terms, for `C=CC1(O)CCC(F)(F)c2c3c(nn2C1)CCN(C(=O)Nc1ccc(F)c(C#N)c1)C3` (single isomer, unassigned) [Example 56, (R*)-N-(3-Cyano-4-fluorophenyl)-11,11-difluoro-8-hydroxy-8-vinyl-3,4,8,9,10,11-hexahydro-1H-pyrido[4′,3′:3,4]pyrazolo[1,5-a]azepine-2(7H)-carboxamide] the value was 16 nM; for `O=C(Nc1ccnc(Br)c1F)N1CCc2nn3c(c2C1)C(F)(F)CC(CO)CC3` (single isomer, unassigned) [Example 135, (R*)-N-(2-Bromo-3-fluoropyridin-4-yl)-11,11-difluoro-9-(hydroxymethyl)-3,4,8,9,10,11-hexahydro-1H-pyrido[4′,3′:3,4]pyrazolo[1,5-a]azepine-2(7H)-carboxamide], 19 nM; for `C[C@@H]1Cc2nn3c(c2CN1C(=O)Nc1ccc(F)c(C#N)c1)C(F)(F)CC[C@H](O)C3` [Example 71, (3R,8 S)-N-(3-Cyano-4-fluorophenyl)-11,11-difluoro-8-hydroxy-3-methyl-3,4,8,9,10,11-hexahydro-1H-pyrido[4′,3′:3,4]pyrazolo[1,5-a]azepine-2(7H)-carboxamide], 2 nM.
Regarding `O=C(Nc1ccc(F)c(Br)c1F)N1CCc2nn3c(c2C1)C(F)(F)CC[C@@H](O)C3` [Example 12, (R)-N-(3-Bromo-2,4-difluorophenyl)-11,11-difluoro-8-hydroxy-3,4,8,9,10,11-hexahydro-1H-pyrido[4′,3′:3,4]pyrazolo[1,5-a]azepine-2(7H)-carboxamide], the EC50 came out at 19 nM.
The same measure, in the same setting: to `O=C(Nc1ccnc(Br)c1F)N1CCc2nn3c(c2C1)C(F)(F)CCC(F)(CO)C3` (stereo not drawn) [Example 46, N-(2-Bromo-3-fluoropyridin-4-yl)-8,11,11-trifluoro-8-(hydroxymethyl)-3,4,8,9,10,11-hexahydro-1H-pyrido[4′,3′:3,4]pyrazolo[1,5-a]azepine-2(7H)-carboxamide] belongs 12 nM.
Same read-out and setting: for `O=C(Nc1ccc(F)c(C(F)(F)F)c1)N1CCc2nn3c(c2C1)C(F)(F)CC[C@H](O)C3` [Example 4, (S)-11,11-Difluoro-N-(4-fluoro-3-(trifluoromethyl)phenyl)-8-hydroxy-3,4,8,9,10,11-hexahydro-1H-pyrido[4′,3′:3,4]pyrazolo[1,5-a]azepine-2(7H)-carboxamide] the value was 37 nM; for `C[C@@H]1Cc2nn3c(c2CN1C(=O)Nc1ccnc(Br)c1F)C(F)(F)CC(O)(CF)CC3` (single isomer, unassigned) [Example 127, (3R,9R*)-N-(2-Bromo-3-fluoropyridin-4-yl)-11,11-difluoro-9-(fluoromethyl)-9-hydroxy-3-methyl-3,4,8,9,10,11-hexahydro-1H-pyrido[4′,3′:3,4]pyrazolo[1,5-a]azepine-2(7H)-carboxamide], 5 nM.
Same read-out and setting: for `N#Cc1cc(NC(=O)N2CCc3nn4c(c3C2)C(F)(F)CC[C@H](OCC(F)F)C4)ccc1F` [Example 13, (S)-N-(3-Cyano-4-fluorophenyl)-8-(2,2-difluoroethoxy)-11,11-difluoro-3,4,8,9,10,11-hexahydro-1H-pyrido[4′,3′:3,4]pyrazolo[1,5-a]azepine-2(7H)-carboxamide] the value was 42 nM.
With `C[C@@H]1Cc2nn3c(c2CN1C(=O)Nc1ccnc(C(F)F)c1F)C(F)(F)CC[C@@H](O)C3` [Example 70, (3R,8R)-N-(2-(Difluoromethyl)-3-fluoropyridin-4-yl)-11,11-difluoro-8-hydroxy-3-methyl-3,4,8,9,10,11-hexahydro-1H-pyrido[4′,3′:3,4]pyrazolo[1,5-a]azepine-2(7H)-carboxamide], the EC50 came out at 31 nM.
The same measure, in the same setting: to `COC(=O)NCC1CCC(F)(F)c2c3c(nn2C1)CCN(C(=O)Nc1ccnc(Br)c1F)C3` (stereo not drawn) [Example 54, Methyl ((2-((2-bromo-3-fluoropyridin-4-yl)carbamoyl)-11,11-difluoro-2,3,4,7,8,9,10,11-octahydro-1H-pyrido[4′,3′:3,4]pyrazolo[1,5-a]azepin-8-yl)methyl)-carbamate] belongs 8 nM; to `C[C@@H]1Cc2nn3c(c2CN1C(=O)Nc1ccc(F)c(C#N)c1)C(F)(F)CCC(O)(CF)C3` (single isomer, unassigned) [Example 83, (3R,8R*)-N-(3-Cyano-4-fluorophenyl)-11,11-difluoro-8-(fluoromethyl)-8-hydroxy-3-methyl-3,4,8,9,10,11-hexahydro-1H-pyrido[4′,3′:3,4]pyrazolo[1,5-a]azepine-2(7H)-carboxamide], 10 nM.
For the molecule `N#Cc1cc(NC(=O)N2CCc3nn4c(c3C2)C(F)(F)CCC(F)(CO)C4)ccc1F` (stereo not drawn) [Example 45, N-(3-Cyano-4-fluorophenyl)-8,11,11-trifluoro-8-(hydroxymethyl)-3,4,8,9,10,11-hexahydro-1H-pyrido[4′,3′:3,4]pyrazolo[1,5-a]azepine-2(7H)-carboxamide], the concentration giving a half-maximal response (EC50) was determined as 5 nM.
Still for that read-out and setting: for `N#CCC1(O)CCC(F)(F)c2c3c(nn2C1)CCN(C(=O)Nc1ccc(F)c(C#N)c1)C3` (stereo not drawn) [Example 40, N-(3-Cyano-4-fluorophenyl)-8-(cyanomethyl)-11,11-difluoro-8-hydroxy-3,4,8,9,10,11-hexahydro-1H-pyrido[4′,3′:3,4]pyrazolo[1,5-a]azepine-2(7H)-carboxamide] the value was 13 nM.
On the same count and under the same terms, for `O=C(Nc1ccnc(Br)c1F)N1CCc2nn3c(c2C1)C(F)(F)CC[C@@H](O)C3` [Example 10, (R)-N-(2-Bromo-3-fluoropyridin-4-yl)-11,11-difluoro-8-hydroxy-3,4,8,9,10,11-hexahydro-1H-pyrido[4′,3′:3,4]pyrazolo[1,5-a]azepine-2(7H)-carboxamide] the value was 32 nM.
The same measure, in the same setting: to `C#CC1(O)CCC(F)(F)c2c3c(nn2C1)C[C@@H](C)N(C(=O)Nc1ccnc(C(F)F)c1F)C3` (single isomer, unassigned) [Example 97, (3R,8R*)-N-(2-(Difluoromethyl)-3-fluoropyridin-4-yl)-8-ethynyl-11,11-difluoro-8-hydroxy-3-methyl-3,4,8,9,10,11-hexahydro-1H-pyrido[4′,3′:3,4]pyrazolo[1,5-a]azepine-2(7H)-carboxamide] belongs 35 nM; to `C#CC1(O)CCC(F)(F)c2c3c(nn2C1)CCN(C(=O)Nc1ccc(F)c(C#N)c1)C3` (stereo not drawn) [Example 58, N-(3-Cyano-4-fluorophenyl)-8-ethynyl-11,11-di fluoro-8-hydroxy-3,4,8,9,10,11-hexahydro-1H-pyrido[4′,3′:3,4]pyrazolo[1,5-a]azepine-2(7H)-carboxamide], 37 nM.

Still in this test, the particulars now being: Hepatitis B virus, HepG2.2.15, 144 h, read-out: HepG2.2.15 EC50 HBV DNA.
With `O=C(Nc1ccnc(Br)c1F)N1CCc2nn3c(c2C1)C(F)(F)CCC(CNC(=O)C(F)(F)F)C3` (stereo not drawn) [Example 52, N-(2-Bromo-3-fluoropyridin-4-yl)-11,11-difluoro-8-((2,2,2-trifluoroacetamido)methyl)-3,4,8,9,10,11-hexahydro-1H-pyrido[4′,3′:3,4]pyrazolo[1,5-a]azepine-2(7H)-carboxamide], the EC50 was 102 nM.
